The results in this text go back to paper PMC9322123, “Design and Synthesis of New Pyrimidine-Quinolone Hybrids as Novel hLDHA Inhibitors” (Pharmaceuticals, 2022).

The nature of data set [1]: Solubility as observed on handling. The format is physicochemical.
Data set [2] concerns the target T1, hLDHA (Homo sapiens, UniProt P00338).
T1 construct: purchased Abcam
Put plainly: hLDHA enzymatic assay (kinetic fluorometric, pyruvate substrate, NADH co-factor). The format is biochemical. The settings on record: hLDHA, 1 mM pyruvate, 151 µM β-NADH, compounds 0.048–100 µM, n = 3. How it is done: The inhibitory activity of the pyrimidine-quinolone hybrids 10, 15, 19, and 24–31(a–c) against the hLDHA enzyme was measured by a kinetic spectrofluorometric assay.
hLDHA activity was determined throughout a fluorometric method with pyruvate as substrate and NADH co-factor, as previously reported and modified as described here: in each well, the final volume was set to 200 µL, and the final concentrations were 100 mM potassium phosphate buffer, 0.041 units/mL hLDHA (95%, specific activity >300 units/mg and concentration of 0.5 mg/mL, Abcam, Cambridge, United Kingdom), 151 µM β-NADH, 1 mM pyruvate (saturated conditions), and DMSO solutions (2%, v/v) of pure compounds at concentrations in the range of 0.048–100 µM. The reaction was initiated by the addition of pyruvate, and the NADH concentration decrease was measured for 10 min in a TECAN Infinite 200 Pro M Plex fluorescence plate reader at 28 °C, with excitation at 340 nm and emission at 460 nm. The percentage of activity for each measure was calculated by comparison between the maximum slope of each compound concentration and the maximum slope when no inhibitor (DMSO only) was in the well (100% enzymatic activity). The compound 3-[[3[(cyclopropylamino)sulfonyl]-7-(2,4-dimethoxy-5-pyrimidinyl)-4-quinolinyl]amino]-5-(3,5-difluorophenoxy)benzoic acid (GSK 2837808 A, Tocris, Minneapolis, MN, USA) was used as a positive control.
The measurements were obtained thrice, and data were expressed as the mean ± SD of n = 3 replicates for IC50 values. As-obtained data were later plotted in GraphPad Prism version 5.00 for Windows (GraphPad Software, La Jolla, CA, USA). Nonlinear regression analysis was chosen for dose response curve, representing the logarithm of inhibitor concentration vs. normalized enzymatic activity in order to calculate IC50 values.

Entries after “also recorded” stand apart in the source; their conditions may differ.

As usually defined, the IC50 is the concentration that gives 50% inhibition. High values mean weaker potency, low ones greater potency. As for `O=c1[nH]c2ccccc2cc1COc1ccc(Nc2nccc(-c3ccc(Cl)cc3)n2)cc1` [Compound 15, 3-((4-((4-(4-Chlorophenyl)pyrimidin-2-yl)amino)phenoxy)methyl)quinolin-2(1H)-one], the “solubility (in words)” value in data set [1] is reported as “highly insoluble; also recorded: problems related with solubility”. For the same molecule, the IC50 in data set [2] is greater than 100 µM.
